Measured values published in US10463694B2, “Functional segregated telodendrimers and nanocarriers and methods of making and using same” (The Research Foundation for the State University of New York, priority 2014, dated 2019).
Values joined by “and” are separate entries in the source; they are usually repeats but may differ in a detail not shown here. Identical values can stand only once.

Assays:
[1] = DOX release, dialysis against PBS; format: physicochemical; conditions: dialysis against PBS at 37° C.
Procedure: DOX Release. 1 mL of DOX-PEG^5KCHA4-L-Rh4 (1.5:15.0) solution was distributed into three dialysis tube and dialyzed against 50 ml PBS at 37° C., respectively, in comparison with free DOX. The samples were placed in conical tubes filled with PBS, which was refreshed at the time of UV-Vis measuring at 550 nm (FIG. 13). The free DOX was completely released by 10 hours but the loaded DOX remained encapsulated at around 50% by the time the study was finished at 96 hours. This indicates the high DOX binding affinity within PEG^5KCHA4-L-Rh4 micelles and a sustained DOX release would reduce in vivo toxicity of payload drug and increase tumor targeting effects via the prolonged circulating to take EPR effects.

[2] = test system: SKOV-3 tumor xenograft; assay: NIRF optical animal imaging, in vivo and ex vivo; set-up: species or system nude mice; conditions: in vivo whole body imaging
Procedure: DiD (a hydrophobic near-infrared (NIR) cyanine dye) was encapsulated in each nanocarrier (together with PTX and CDDP) at a ratio of 2:1:0.1 (CDDP/PTX/DiD by weight) using the same method as described above. The particle size was measured by DLS analysis. 100 μL of TM(DiD-PTX-CDDP) solution was filtered with a 0.22 μm filter to sterilize solution before injection. At the same time, same amount of DiD in DMSO solution was diluted with PBS right before I.V. injection. The fluorescent DiD co-loaded TM with equivalent dose of 6 mg/kg CDDP were injected into nude mice bearing SKOV-3 tumor xenograft via tail vein. Mice were anesthetized via isoflurane and optically imaged at different time points (1 h, 2 h, 4 h, 8 h, 24 h, 48 h and 72 h) using an IVIS 200 (PerkinElmer) with the (excitation/emission 625/700 nm). At the end of the experiments, the animals were sacrificed and all the major organs as well as tumors were excised for ex vivo imaging to determine the in vivo biodistribution of nanoparticles. The associated fluorescence intensities were determined by Living Image software (Caliper Life Sciences) using operator-defined regions of interest (ROI) measurements.

[3] = test system: SKOV-3 ovarian cancer xenografts; assay: In vivo anticancer efficacy
Procedure: Xenograft Mouse Models. Female athymic nude mice (Nu/Nu strain), 5-6 weeks age, were purchased from Harlan (Livermore, Calif.). All animals were kept under pathogen-free conditions according to AAALAC (Association for Assessment and Accreditation of Laboratory Animal Care) guidelines and were allowed to acclimatize for at least 4 days prior to any experiments. All animal experiments were performed in compliance with institutional guidelines and according to protocol approved by the Animal Use and Care Administrative Advisory Committee. SKOV-3 ovarian cancer cells (7×10^6) in a 100/IL of mixture of PBS and Matrigel (1:1 v/v) without fetal bovine serum (FBS) were injected subcutaneously into the flanks of nude mice to form nodules.
In vivo anticancer efficacy. Nude mice bearing human SKOV3 ovarian cancer tumor (approximately 150 mm^3) were randomly divided into 6 groups (n=5), including control (PBS only), free CDDP (4 mg/kg CDDP), TM(PTX) (3 mg/kg PTX), PEG(CDDP) (4 mg/kg CDDP), TM(CDDP) (6 mg/kg CDDP), and TM(CDDP/PTX=2:1) (6 mg/kg CDDP, 3 mg/kg PTX). Treatments were administered 3 times totally via tail vein on day 0, 4 and 8. Animal body weight and tumor volume were monitored every second day. Seven days after the last treatment, about 100 μL of blood was collected via tail bleeding for blood counts. The tumor sizes were measured with electronic calipers, and calculated using the following formula: V=(shortest diameter^2×longest diameter)/2.

[4] = cancer treatment in mouse models; cited from earlier work
[5] = Pharmacokinetics of platinum in plasma after i.v. injection; format: in vivo, mice
Procedure: Pharmacokinetics and biodistribution. The blood pharmacokinetics study were performed using female SPF BALB/c mice, which were purchased from Charles River Laboratories Inc. Nanocarriers were administered into mice via tail vein injection with free drug mixture of CDDP/PTX or co-loading TM (CDDP/PTX=2:1) solution at a single equivalent dose of CDDP/PTX 6/3 mg/kg via tail vein. At defined time points (5 min, 0.5 h, 1 h, 2 h, 4 h, 8 h, 24 h and 48 h), blood samples were collected into heparinized tubes and immediately centrifuged at 1,000 rpm for 15 min to obtain plasma. Plasma samples were dissolved on heat in nitric acid and the platinum contents were measured by ICP-MS. The percentage of injected dose in plasma was calculated considering plasma volume in mice to be 45.6 mL/kg. (King F G, Dedrick R L. Physiological pharmacokinetic parameters for cis-dichlorodiammineplatinum(II) (DDP) in the mouse. J Pharmacokinet Biopharm. 1992; 20:95-9.)

[6] = test system: SKOV-3 ovarian cancer cells; assay: MTS cytotoxicity and combination index, SKOV-3; format: cell-based, human; conditions: 72 h
Procedure: (§1) In vitro synergistic cytotoxicity: The cytotoxicity of blank micelles and drug-loaded micelle were assessed by measuring the cell viability using the standard MTS assay. SKOV-3 ovarian cancer cells and ES-2 ovarian cancer cells were seeded in 96-well plates at 4×10^3 cells per well in 100 μL of McCoy's 5A with L-glutamine containing 10% fetal bovine serum, supplemented with 50 U/mL penicillin and 50 U/mL streptomycin, and incubated at 37° C. in 5% CO2 atmosphere for 24 h. Different concentrations of the empty micelle solutions and drug-loaded micelles were added into the cell medium. After 72 h incubation, Cell Titer 96® Aqueous Cell Proliferation Reagent, which is composed of MTS and an electron coupling reagent PMS, was added to each well according to the manufacturer's instructions. The cell viability was determined by measuring the absorbance at 490 nm using a micro-plate reader. […]
(§2) The effective method to evaluate synergistic drug combinations in vitro is median-effect analysis, as originally proposed by Chou and Talalay (Chou T C. Theoretical basis, experimental design, and computerized simulation of synergism and antagonism in drug combination studies. Pharmacol Rev. 2006; 58:621-81. Chou T C, Talalay P. Quantitative analysis of dose-effect relationships: the combined effects of multiple drugs or enzyme inhibitors. Adv Enzyme Regul. 1984; 22:27-55.). […]

[7] = Tissue biodistribution of Pt by ICP-MS; format: in vivo, nude mice; conditions: 48 h post-injection
Procedure: Free CDDP and TM (CDDP/PTX=2:1) were injected into nude mice via tail vein at a single equivalent dose of CDDP 6 mg/kg. At 48 h post-injection, major organs (heart, liver, spleen, lung and kidney) and tumor tissues were harvested from the mice. The organs were weighed and dissolved in the concentrated nitric acid by heating up (70° C.) and evaporated to dryness, and then re-dissolved in 0.1N HCl for tissue biodistribution of Pt analysis by ICP-MS.

[8] = test system: ES-2 ovarian cancer cells; assay: MTS cytotoxicity and combination index, ES2; format: cell-based; conditions: 72 h
Procedure: as §1, §2

[9] = test system: Hela cells; assay: MTS cytotoxicity and combination index, Hela; format: cell-based; conditions: 72 h
[10] = in vivo; cited from earlier work
[11] = test system: wide variety of cancer cells in culture; conditions: cited from earlier work
[12] = platinum in plasma, i.v., two compartment model
[13] = first figure of co-loaded cells

## COc1cccc2c1C(=O)c1c(O)c3c(c(O)c1C2=O)C[C@@](O)(C(=O)CO)C[C@@H]3O[C@H]1C[C@H](N)[C@H](O)[C@H](C)O1 [free DOX, Doxorubicin]
[1]
  time to complete DOX release: ≤ 10 h

## CCCCCCCCCCCCCCCCCCN1C(=CC=CC=CC2=[N+](CCCCCCCCCCCCCCCCCC)c3ccccc3C2(C)C)C(C)(C)c2ccccc21.[O-][Cl+3]([O-])([O-])[O-] [free DiD, 1,1′-dioctadecyl-3,3,3,′,3′-tetramethylindodicarbocyanine perchlorate]
[2]
  tumor fluorescence: very weak tumor fluorescence

## [NH2][Pt]([NH2])([Cl])[Cl] [CDDP, Cisplatin]
[3]; 4 mg/kg CDDP
  medium survival time: 15 days
[3]; 4 mg/kg CDDP on days 0, 4, 8, day 12
  body weight loss: exceeded 20%
[3]; 4 mg/kg CDDP, deaths on day 12, 13, 15, 16 and 17
  mortality: died
[3]; day 7 after the last injection, 4 mg/kg CDDP
  WBC count versus PBS control: significantly decreased
[4]
  maximum tolerated dose (MTD): ≤ 4 mg/kg
[5]; 30 min after injection
  Pt of the injected dose in plasma: 5%
[5]; 24 h post injection
  Pt of the injected dose in plasma: less than 1%
[5]; platinum in plasma, 5 min post iv injection
  Cmax: 27600 ng/mL and 27580 ng/mL
[5]; platinum in plasma, i.v.
  AUC: 30800 ng·h/mL
  CL: 2.1645 mL/min/kg
  CL2: 9.3217 mL/min/kg
  Vss: 0.6681 L/kg
[5]; [12]
  t1/2α: 2.64 min
  t1/2β: 258 min
[6]; first figure of co-loaded cells (CDDP/PTX)
  SKOV-3 IC50, CDDP concentration: 1.354 µg/mL
[7]
  kidney/tumor ratio of Pt concentrations: 4
  liver/tumor ratio of Pt concentrations: 2
[8]; [13]
  ES2 IC50, CDDP concentration: 0.92 µg/mL
[9]; [13]
  Hela IC50, CDDP concentration: 2.427 µg/mL

## CC(=O)O[C@H]1C(=O)[C@@]2(C)[C@H]([C@H](OC(=O)c3ccccc3)[C@]3(O)C[C@H](OC(=O)[C@H](O)[C@@H](NC(=O)c4ccccc4)c4ccccc4)C(C)=C1C3(C)C)[C@]1(OC(C)=O)CO[C@@H]1C[C@@H]2O [PTX, paclitaxel]
[10]
  t1/2 in human: 20.4 min
[11]
  potency relative to CDDP (IC50s: low nM vs low μM): ~1000 times
[6]; Homo sapiens, SK-OV-3, second figure of co-loaded cells (CDDP/PTX), read-out: SKOV-3 IC50, PTX concentration
  IC50: 0.032 µg/mL
[8]; second figure of co-loaded cells, read-out: ES2 IC50, PTX concentration
  IC50: 0.055 µg/mL
[9]; Homo sapiens, HeLa, second figure of co-loaded cells, read-out: Hela IC50, PTX concentration
  IC50: 0.02 µg/mL
